Results reported in US6960594B2, “Thiophene and furan 2,5-dicarboxamides useful in the treatment of cancer” (Shire BioChem Inc., priority 1998, dated 2005).
pIC50: −log10 of the molar value. Counter-ions that a name gives are not always drawn. Like-named read-outs stand apart in the source and are kept apart here.

What was measured:
αvβ3 = biological target: T1, αvβ3 (Homo sapiens, UniProt P05106+P06756); experiment: Cell adhesion assay, K562-tr on osteopontin; format: cell-based
T1 construct: expressed in transfected cells; host or cells: K562
Method: (§1) The wells of 96-well plates (Immunolon) were coated, by incubation overnight at 4° C., with 5 ug/mL vitronectin, 2 ug/mL osteopontin, or fibronectin or 10 mg/mL BSA in PBS. The protein solution was flicked out and the wells were blocked with 10 mg/mL BSA (0.1 mL) for 1-2 hours at 37° C. […] Cells were lifted with trypsin-EDTA and washed two times with Hank's balanced salt solution minus cations (Sigma) supplemented with 1 mM MgCl2 Cells (75,000 cells/well) were added to coated plates in triplicate and allowed to attach at 37° C. for 1 hour in the presence or absence of specific antibodies (5 ug/mL) or 10-fold dilutions of compounds of interest starting at 10 uM. Nonadherent cells were removed by gentle washing twice with PBS. The adherent cells were solubilized with 1% triton x-100 and detected using a fluorescence plate reader (DYNEX Technologies). The number of attached cells was calculated based upon standard curves for each cell line used in the experiment.

α5β1 = biological target: T2, α5β1 (Homo sapiens, UniProt P05556+P08648); experiment: Cell adhesion assay, K562 on fibronectin; format: cell-based; conditions: K562 cells, adhesion to fibronectin, 1 hour
T2 construct: Cells HT29, K562, or K562 transfected with αvβ3; endogenous in cells; host or cells: K562
Method: The wells of 96-well plates (Immunolon) were coated, by incubation overnight at 4° C., with 5 ug/mL vitronectin, 2 ug/mL osteopontin, or fibronectin or 10 mg/mL BSA in PBS. The protein solution was flicked out and the wells were blocked with 10 mg/mL BSA (0.1 mL) for 1-2 hours at 37° C. Cells HT29, K562, or K562 transfected with αvβ3 (Blystone et al., 1994) were loaded with a fluorescent marker, 5-chloromethylfluorescein diacetate (Molecular Probes, Eugene, Oreg.) for 1 hour at 37° C., then incubated in fresh medium without the fluorescent marker for 1 hour. Cells were lifted with trypsin-EDTA and washed two times with Hank's balanced salt solution minus cations (Sigma) supplemented with 1 mM MgCl2 Cells (75,000 cells/well) were added to coated plates in triplicate and allowed to attach at 37° C. for 1 hour in the presence or absence of specific antibodies (5 ug/mL) or 10-fold dilutions of compounds of interest starting at 10 uM. Nonadherent cells were removed by gentle washing twice with PBS. The adherent cells were solubilized with 1% triton x-100 and detected using a fluorescence plate reader (DYNEX Technologies). The number of attached cells was calculated based upon standard curves for each cell line used in the experiment. Non-specific cell attachment (attachment to wells coated with BSA) was always less than 5%.

[1] = test system: Chick chorioallantoic membrane (CAM) capillary formation driven by VPF/VEGF165; experiment: Chick chorioallantoic membrane (CAM) mesh assay; format: in vivo, chicken; conditions: significant if >25%
Method: Fertilized white leghorn chicken eggs (SPAFAS Inc., Norwich, Conn.) were received at day 0 and incubated for 3 days at 37 C with constant humidity. On day 3, eggs were rinsed with 70% ethanol and opened into 100 mm^2 tissue culture coated Petri dishes under aseptic conditions. The embryos were then returned to a humidified 38 C incubator for 7-9 additional days.
Vitrogen (Collagen Biomaterials, Palo Alto, Calif.) at a final concentration of 0.73 mg/mL and Matrigel (Becton Dickinson, Bedford, Mass.) at a final concentration of 10 mg/mL was directly pipetted onto Nylon meshes with 250 μm^2 openings which were cut into 4 mm×4 mm squares and autoclaved. Polymerization of meshes were under aseptic conditions, on bacteriological Petri dishes. The polymerization conditions for each substrate were identical; after mixing with or without 250 μg of VPF/VEGF165 (Peprotech, Rocky Hill, N.J.) and/or compounds of interest, 40 μL were pipetted onto each mesh in a bacteriological Petri dish. The Petri dish was placed in a humidified 37 C incubator with 5% CO2 for 30 minutes to allow polymerization followed by an incubation at 4° C. for 2 hours.
In a tissue culture enclosure, meshes were placed onto the periphery of the CAM of a day 12-14 embryo, excluding areas containing major vessels. The embryos were then returned to the humidified 38° C. incubator with 3% CO2 for 24 to 48 additional hours.
Embryos were removed from the incubator and meshes were viewed under a dissecting microscope for gross evaluation. Injection of 400 μL FITC dextran, MW 2,000,000 (Sigma, St. Louis, Mo.) through glass microcapillary tubes by infusion into the umbilical vein was performed at a rate of 200 μl per minute. The FITC dextran was allowed to circulate for 5 minutes and 3.7% formaldehyde in PBS was applied directly on each mesh. The embryos were then incubated at 40° C. for 5 minutes and the meshes were dissected off the CAM and fixed in 3.7% formaldehyde for 10 minutes to overnight.
After fixation, meshes were mounted on slides with 90% glycerol in PBS and visualized on an inverted fluorescence microscope. A Nikon Diaphot with a Sony DXC-151A camera attached to the side port was used for capture of images and analysis was with the NIH Image 1.61 software program. For each mesh, 5 random staggered images (approximately 600 μm each) were captured. The areas of high intensity were highlighted and measured. Results are expressed as ability to suppress capillary formation after subtraction from negative control. Values were calculated as a inhibition, considering 100% the capillary density achieved by VPF in the presence of vitrogen alone minus the bakground levels in the absence of VPF. Negative values indicated angiogenic stimulation above the VPF positive control.

αvβ5 = biological target: T3, αvβ5 (Homo sapiens, UniProt P06756+P18084); experiment: Cell adhesion assay, HT29 on vitronectin; format: cell-based
T3 construct: Cells HT29, K562, or K562 transfected with αvβ3; endogenous in cells; host or cells: HT29
Method: as §1

placental αvβ3 = biological target: T4, placental αvβ3 (Homo sapiens, UniProt P05106+P06756); experiment: Fibrinogen binding to immobilized αvβ3
T4 construct: placental αvβ3 at 0.5 ug/mL; from tissue; host or cells: placenta
Method: (§2) The wells of plastic microtiter plates were coated overnight at 4° C. with purified active αIIbβ3 (Calbiochem) or placental αvβ3 at 0.5 ug/mL (100 uL/well) in a buffer containing 150 mM NaCl, 20 mM Tris, pH 7.4, 1 mM MgCl2, 0.2 mM MnCl2, and including 1 mM CaCl2 for αIIbβ3. Blocking of nonspecific sites was achieved by incubating the wells with 35 mg/mL bovine serum albumin (BSA) for at least 2 hours at 37° C. Biotinylated-fibrinogen (10 nM) was added in 0.2 mL binding buffer (100 mM NaCl, 50 mM Tris, pH 7.4, 1 mM MgCl2, 0.2 mM MnCl2 and 1 mg/mL BSA including 1 mM CaCl2 for αIIbβ3) to the wells in triplicate in the absence or presence of increasing concentrations of compounds of interest (0.001-100 uM) and further incubated for 2 hours at 37° C. Nonbound fibrinogen was removed by five washes with binding buffer. Avidin conjugated to alkaline phosphatase (Sigma), diluted in binding buffer, was added and incubated for two hours at 37° C. The plates were washed five times with binding buffer, and after addition of the substrate PNPP (Pierce), the enzyme activity was measured by the absorbance at 405 nm.

GP IIb-IIIa (αIIbβ3) = biological target: T5, GP IIb-IIIa (αIIbβ3) (Homo sapiens, UniProt P05106+P08514); experiment: Fibrinogen binding to immobilized GP IIb-IIIa (αIIbβ3)
T5 construct: purchased Calbiochem
Method: as §2

HMVEC = experiment: Cell proliferation and cytotoxicity MTT assay, HMVEC; format: cell-based; conditions: HMVEC, 72 hours culture
Method: (§3) The wells of microtiter plates were seeded with 2000 cells/well T24, 2500 cells/well HT29 or 5000 cells/well HMVEC (Cell Systems) in 100 uL, followed by an overnight culture for cell adhesion. The next day, the media is supplemented with 100 uL of 10-fold dilution of compound of interest starting at 10 uM. Following culture for 72 hours, 3-(4,5-dimethyl-2-thiazolyl)-2,5-diphenyltetrazolium bromide (MTT; Sigma) at 2 mg/mL was added to each well (50 uL/well) and further incubated for 4 hours at 37° C. The medium was flicked out and 200 uL of a 1:1 solution of ethanol:acetone followed by 25 uL of glycine buffer (0.1 M glycine, 0.1M NaCl, pH 10.5) is added and the color measured by the absorbance at 570 nm.

HT29 = experiment: Cell proliferation and cytotoxicity MTT assay, HT29; format: cell-based; conditions: Homo sapiens, HT-29, 72 hours culture
Method: as §3

[2] = test system: Human non small-cell lung cancer cell line H460; experiment: Inhibition of metastasis in angiomouse/metamouse human lung cancer model of H460; format: in vivo, athymic BALB/c nude mice; conditions: Group B, 10 mg/kg SC 3 times/week
Method: Male and female athymic BALB/c nude mice between 4 and 5 weeks of age were used. The animals were bred and maintained in an HEPA-filtered environment with cages, food and bedding sterilized by autoclaving. The breeding pairs were obtained from the Charles River Laboratories (Wilmington, Mass.). The animal diets were obtained from Harlan Teklab (Madison, Wis.). Ampicillin (Sigma, St Louis, Mo.) 5.0% (v/v) was added to the autoclaved drinking water.
Compound VII was tested and AGM-1470 (chloroacetyl-(3R,4S,5S,6R)-5-methoxy-4-[(2R,3R)-2-methyl-3-(3-methyl-2-butenyl)oxiranyl]-1-oxaspiro[2.5]oct-6-yl ester carbamic acid) was used as a positive control. [drawing 51] The compounds were dissolved using PEG400 with heating and sonicatin. The solutions were then diluted with saline to obtain the desired concentrations (30%/70%) and stored at −20° C.
Human non small-cell lung cancer cell line H460 with expression of green fluorescent protein was obtained from the National Cancer Institute. The cells were transfected with vectors carrying the green fluorescent protein (GFP) gene. The cell line was propagated by subcutaneous implantation in nude mice.
Test animals were transplanted by surgical orthotopic implantation (SOI) using fragments harvested from subcutaneaous tumor stock animals. The animals were anesthetized with isoflurane and the surgical area was sterilized using iodine solution and alcohol. A left thoracotomy was made along the 4th intercostal space using a pair of scissors. Two pieces of H460 tumor tissue of one cubic millimiter each were sutured to the left lung using an 8-0 nylon surgical suture. The thorax was closed using a sterile 6-0 silk suture. A sterile 3-cc syringe with a 25-gauge needle was used to remove the air and inflate the lung. All surgical and animal manipulations and procedures were conducted under HEPA-filtered laminar flow hoods.
Extra numbers of mice were transplanted to compensate for postsurgical losses. The orthotopically transplanted animals used were selected to establish groups of similar mean body weight. Groups for each of the cohort conditions wre randomly chosen. The cohort was grouped as follows. A total of 10 mice were used for each dosage regimen. Administration of test compounds and vehicle by subcutaneous injection was begun three days after the orthotopic implantation.
Two animals for each treatment group were sacrificed at day-14 after orthotopic implantation of H460. The remaining animals for each group were sacrificed at day-28 after implantation. The sacrificed animals were evaluated for primary and secondary tumors. Gross examination for distant metastasis was conducted at necropsy. Tissue samples of the primary tumor and those from relevant organs such as the lung, the liver and the lymph nodes wre processed through standards procedures of hematoxylin and eosin staining for subsequent microscopic examination.
The mediastinal lymph nodes, the liver and the lung in each animal were collected. The sampled tissues were sectioned and stained, then microscopically examined. The fisher-exact test was performed to compare distant metastasis to these organs in the treated and the controls. […]

[3] = K562 transfected with αvβ3, adhesion to osteopontin, 1 hour, read-out: IC50 K562-tr Osteopontin (αvβ3)

T1 sequence (P06756 31-889 limits assumed): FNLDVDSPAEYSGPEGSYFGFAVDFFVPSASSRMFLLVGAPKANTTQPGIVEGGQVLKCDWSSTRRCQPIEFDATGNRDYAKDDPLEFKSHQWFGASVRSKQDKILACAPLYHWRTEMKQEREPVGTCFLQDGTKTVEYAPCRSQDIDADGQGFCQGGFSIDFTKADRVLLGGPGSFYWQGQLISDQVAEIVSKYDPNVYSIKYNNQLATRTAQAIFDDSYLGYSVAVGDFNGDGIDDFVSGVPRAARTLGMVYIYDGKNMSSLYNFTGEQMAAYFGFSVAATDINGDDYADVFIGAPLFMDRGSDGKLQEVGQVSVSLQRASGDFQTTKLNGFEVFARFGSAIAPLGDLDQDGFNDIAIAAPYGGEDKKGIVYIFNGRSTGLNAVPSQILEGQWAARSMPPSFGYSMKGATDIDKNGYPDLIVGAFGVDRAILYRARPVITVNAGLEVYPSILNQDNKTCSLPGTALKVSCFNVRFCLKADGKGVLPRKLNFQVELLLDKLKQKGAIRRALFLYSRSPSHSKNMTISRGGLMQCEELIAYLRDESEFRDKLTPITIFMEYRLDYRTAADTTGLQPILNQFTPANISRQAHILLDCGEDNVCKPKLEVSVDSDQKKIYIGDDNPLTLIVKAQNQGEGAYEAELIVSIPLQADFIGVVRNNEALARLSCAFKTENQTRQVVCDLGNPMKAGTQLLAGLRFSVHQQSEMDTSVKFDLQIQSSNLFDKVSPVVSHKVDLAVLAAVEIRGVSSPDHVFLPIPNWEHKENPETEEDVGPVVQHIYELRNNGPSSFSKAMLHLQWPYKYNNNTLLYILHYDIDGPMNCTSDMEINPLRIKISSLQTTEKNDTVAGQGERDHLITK
T1 sequence (P06756 891-1048 partner limits assumed): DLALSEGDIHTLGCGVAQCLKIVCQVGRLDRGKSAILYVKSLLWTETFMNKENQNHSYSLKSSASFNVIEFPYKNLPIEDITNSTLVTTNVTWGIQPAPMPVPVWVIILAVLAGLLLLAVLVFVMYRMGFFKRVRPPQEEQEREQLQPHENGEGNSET
T1 sequence (P05106 27-788): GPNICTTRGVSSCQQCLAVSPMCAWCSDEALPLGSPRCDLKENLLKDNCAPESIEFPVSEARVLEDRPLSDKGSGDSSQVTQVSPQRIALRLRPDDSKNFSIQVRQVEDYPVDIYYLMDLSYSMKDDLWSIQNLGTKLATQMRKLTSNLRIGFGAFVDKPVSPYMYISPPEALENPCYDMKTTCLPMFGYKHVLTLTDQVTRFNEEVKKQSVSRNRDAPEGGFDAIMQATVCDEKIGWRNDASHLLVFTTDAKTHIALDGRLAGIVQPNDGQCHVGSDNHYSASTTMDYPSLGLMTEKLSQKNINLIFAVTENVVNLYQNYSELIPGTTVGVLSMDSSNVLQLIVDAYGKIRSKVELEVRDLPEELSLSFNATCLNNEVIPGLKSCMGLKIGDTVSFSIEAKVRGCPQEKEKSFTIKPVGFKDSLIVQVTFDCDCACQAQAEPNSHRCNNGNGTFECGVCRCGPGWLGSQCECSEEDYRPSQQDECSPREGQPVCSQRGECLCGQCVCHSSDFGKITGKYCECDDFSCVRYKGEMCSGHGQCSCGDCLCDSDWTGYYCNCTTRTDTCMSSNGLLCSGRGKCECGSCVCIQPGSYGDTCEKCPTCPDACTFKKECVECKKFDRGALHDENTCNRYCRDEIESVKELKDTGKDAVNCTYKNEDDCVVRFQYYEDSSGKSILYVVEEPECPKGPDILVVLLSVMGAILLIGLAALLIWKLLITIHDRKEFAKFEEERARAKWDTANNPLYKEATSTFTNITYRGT
T2 sequence (P08648 42-894 limits assumed): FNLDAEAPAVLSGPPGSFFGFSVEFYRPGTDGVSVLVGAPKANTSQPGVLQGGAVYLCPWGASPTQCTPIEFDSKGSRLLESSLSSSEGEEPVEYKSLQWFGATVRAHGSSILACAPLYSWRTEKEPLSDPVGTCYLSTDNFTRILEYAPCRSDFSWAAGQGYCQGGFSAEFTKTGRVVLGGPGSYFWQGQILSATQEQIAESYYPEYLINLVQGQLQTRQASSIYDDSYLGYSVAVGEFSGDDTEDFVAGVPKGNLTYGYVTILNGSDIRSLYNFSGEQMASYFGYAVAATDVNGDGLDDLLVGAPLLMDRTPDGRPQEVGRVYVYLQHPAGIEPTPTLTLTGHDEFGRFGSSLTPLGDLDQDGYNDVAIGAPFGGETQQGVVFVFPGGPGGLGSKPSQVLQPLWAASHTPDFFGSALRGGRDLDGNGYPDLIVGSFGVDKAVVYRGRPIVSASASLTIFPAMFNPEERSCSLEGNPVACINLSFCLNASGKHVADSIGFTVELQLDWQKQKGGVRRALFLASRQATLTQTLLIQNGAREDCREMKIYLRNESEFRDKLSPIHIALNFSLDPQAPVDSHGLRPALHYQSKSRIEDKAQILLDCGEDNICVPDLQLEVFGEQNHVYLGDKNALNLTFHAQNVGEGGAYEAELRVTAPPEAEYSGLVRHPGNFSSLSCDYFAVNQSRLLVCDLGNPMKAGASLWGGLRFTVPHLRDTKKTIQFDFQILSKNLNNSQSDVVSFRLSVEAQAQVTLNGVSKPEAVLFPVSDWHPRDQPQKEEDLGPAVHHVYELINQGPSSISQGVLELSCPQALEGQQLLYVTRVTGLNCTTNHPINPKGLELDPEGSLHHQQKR
T2 sequence (P08648 895-1049 partner limits assumed): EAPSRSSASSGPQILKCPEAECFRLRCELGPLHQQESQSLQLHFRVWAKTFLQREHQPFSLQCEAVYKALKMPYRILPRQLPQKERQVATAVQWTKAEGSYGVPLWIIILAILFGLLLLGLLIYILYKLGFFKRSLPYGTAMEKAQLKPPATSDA
T2 sequence (P05556 21-798): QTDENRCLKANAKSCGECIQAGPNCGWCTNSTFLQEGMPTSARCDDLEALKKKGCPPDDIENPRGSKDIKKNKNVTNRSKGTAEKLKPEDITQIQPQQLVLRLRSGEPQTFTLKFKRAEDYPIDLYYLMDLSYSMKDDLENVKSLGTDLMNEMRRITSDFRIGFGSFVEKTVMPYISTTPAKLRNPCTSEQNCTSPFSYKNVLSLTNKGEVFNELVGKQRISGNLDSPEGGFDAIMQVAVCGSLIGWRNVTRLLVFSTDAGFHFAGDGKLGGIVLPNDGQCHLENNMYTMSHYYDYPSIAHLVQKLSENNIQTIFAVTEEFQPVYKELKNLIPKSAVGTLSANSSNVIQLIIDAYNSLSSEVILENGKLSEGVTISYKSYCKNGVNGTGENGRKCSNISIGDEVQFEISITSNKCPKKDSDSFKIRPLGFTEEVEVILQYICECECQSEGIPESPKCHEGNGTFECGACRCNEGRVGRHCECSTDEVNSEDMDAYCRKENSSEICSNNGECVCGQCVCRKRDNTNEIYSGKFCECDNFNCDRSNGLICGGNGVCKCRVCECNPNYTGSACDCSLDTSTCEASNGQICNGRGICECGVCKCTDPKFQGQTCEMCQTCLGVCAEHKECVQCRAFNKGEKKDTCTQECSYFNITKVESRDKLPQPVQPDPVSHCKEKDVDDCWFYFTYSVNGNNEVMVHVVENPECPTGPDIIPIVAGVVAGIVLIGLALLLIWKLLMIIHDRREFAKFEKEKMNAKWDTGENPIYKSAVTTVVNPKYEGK
T5 sequence (P08514 32-887 limits assumed): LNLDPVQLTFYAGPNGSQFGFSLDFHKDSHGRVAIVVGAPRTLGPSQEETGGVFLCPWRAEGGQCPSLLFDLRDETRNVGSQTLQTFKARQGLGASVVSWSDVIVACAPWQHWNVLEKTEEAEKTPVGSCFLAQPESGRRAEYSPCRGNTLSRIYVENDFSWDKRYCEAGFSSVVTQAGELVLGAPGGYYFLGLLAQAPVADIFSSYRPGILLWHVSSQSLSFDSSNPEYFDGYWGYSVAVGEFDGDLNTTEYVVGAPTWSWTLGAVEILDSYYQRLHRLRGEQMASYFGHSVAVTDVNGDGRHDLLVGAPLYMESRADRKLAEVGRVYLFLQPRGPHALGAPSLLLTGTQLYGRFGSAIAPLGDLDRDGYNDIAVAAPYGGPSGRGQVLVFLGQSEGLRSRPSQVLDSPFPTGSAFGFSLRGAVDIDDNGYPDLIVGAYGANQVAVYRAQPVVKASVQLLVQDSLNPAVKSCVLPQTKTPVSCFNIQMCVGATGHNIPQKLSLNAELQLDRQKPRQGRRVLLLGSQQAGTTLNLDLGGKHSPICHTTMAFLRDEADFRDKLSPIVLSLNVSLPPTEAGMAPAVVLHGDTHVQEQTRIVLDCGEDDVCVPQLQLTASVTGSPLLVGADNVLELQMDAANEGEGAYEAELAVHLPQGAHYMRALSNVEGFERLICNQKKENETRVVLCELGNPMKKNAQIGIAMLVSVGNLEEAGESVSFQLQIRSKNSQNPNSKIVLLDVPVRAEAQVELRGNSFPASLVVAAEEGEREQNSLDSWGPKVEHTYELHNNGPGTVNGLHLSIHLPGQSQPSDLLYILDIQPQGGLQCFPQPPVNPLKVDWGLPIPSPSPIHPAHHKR
T5 sequence (P08514 891-1039 partner limits assumed): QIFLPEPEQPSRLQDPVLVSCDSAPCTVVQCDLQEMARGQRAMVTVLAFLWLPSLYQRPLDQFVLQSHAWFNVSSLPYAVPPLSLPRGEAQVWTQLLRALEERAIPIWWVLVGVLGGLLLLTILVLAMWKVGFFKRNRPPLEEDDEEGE
T5 sequence (P05106 27-788): as the sequence (P05106 27-788) above
T4 sequence (P06756 31-889 limits assumed): as the sequence (P06756 31-889 limits assumed) above
T4 sequence (P06756 891-1048 partner limits assumed): as the sequence (P06756 891-1048 partner limits assumed) above
T4 sequence (P05106 27-788): as the sequence (P05106 27-788) above

## N=C(N)NNC(=O)c1ccc(C(=O)NC[C@H](NS(=O)(=O)c2ccccc2)C(=O)O)s1.O=C(O)C(F)(F)F [Compound XIX, 2S-Benzenesulfonylamino-3-[(5-guanidino-aminocarbonyl-thiophene-2-carbonyl)-amino]-3-propionic acid trifluoroacetate]
αvβ3; [3]
  pIC50: 5.89
α5β1
  pIC50: < 5.00
[1]
  % of inhibition at 33 μg/mesh in the presence of VEGF: 8%

## NCCNC(=O)c1ccc(C(=O)NC[C@H](NS(=O)(=O)c2ccccc2)C(=O)O)s1 [Compound X, (2S)2-Benzenesulfonylamino-3-[5-(2-amino-ethylcarbamoyl)-thiophen-2-carbonyl]-amino propionic acid trifluoroacetic acid salt]
αvβ3; [3]
  pIC50: < 5.00
αvβ5; HT29 cells, adhesion to vitronectin, 1 hour, read-out: IC50 HT29 Vitronectin (αvβ5)
  pIC50: < 5.00
α5β1
  pIC50: < 5.00

## NNC(=O)c1ccc(C(=O)NC[C@H](NS(=O)(=O)c2ccccc2)C(=O)O)s1.O=C(O)C(F)(F)F [Compound XVIII, 2S-Benzenesulfonylamino-3-[(5-hydrazinocarbonyl-thiophene-2-carbonyl)-amino]-3-propionic acid trifluoroacetate]
[1]
  % of inhibition at 33 μg/mesh in the presence of VEGF: 20%

## Cl.N=C(N)NCCNC(=O)c1ccc(C(=O)NC[C@H](NS(=O)(=O)c2ccccc2)C(=O)O)o1 [Compound XXI, hydrochloride]
Placental αvβ3
  pIC50: 7.35
GP IIb-IIIa (αIIbβ3)
  pIC50: 6.03
αvβ3
  pIC50: 5.64
αvβ5
  pIC50: 5.27
α5β1
  pIC50: < 5.00
HMVEC
  pIC50: 5.05
HT29
  pIC50: < 5.00

## CO[C@@H]1[C@H](OC(=O)NC(=O)CCl)CC[C@]2(CO2)[C@H]1[C@@]1(C)O[C@@H]1CC=C(C)C [AGM-1470, chloroacetyl-(3R,4S,5S,6R)-5-methoxy-4-[(2R,3R)-2-methyl-3-(3-methyl-2-butenyl)oxiranyl]-1-oxaspiro[2.5]oct-6-yl ester carbamic acid, reference compound]
[2]
  Incidence of lung metastasis: 3/10
  Incidence of lymph node metastasis: 1/10

## N=C(N)NCCCNC(=O)c1ccc(C(=O)NC(CC(=O)O)c2ccccc2)s1 (stereo not shown) [Compound VIII, 3-{[5-(3-guanidino-propylcarbamoyl)-thiophene-2-carbonyl]-amino}-3-phenyl-propionic acid]
Placental αvβ3; biotinylated-fibrinogen (10 nM) binding to immobilized αvβ3, read-out: IC50 αvβ3
  pIC50: 5.49
GP IIb-IIIa (αIIbβ3); biotinylated-fibrinogen (10 nM) binding to immobilized αIIbβ3, read-out: IC50 αIIbβ3
  pIC50: 5.23
HMVEC
  pIC50: < 5.00
HT29
  pIC50: < 5.00
[1]
  % of inhibition at 33 μg/mesh in the presence of VEGF: 36%

## Cl.N=C(N)NCCNC(=O)c1ccc(C(=O)NC[C@H](NS(=O)(=O)c2ccccc2)C(=O)O)o1 [Compound XXI]
[1]
  % of inhibition at 33 μg/mesh in the presence of VEGF: 32%
